Read-outs that look alike come from different tables or passages of the source.
Experiments:
Jurkat cells [1] = experiment: Apoptosis assay (Annexin V-FITC, flow cytometry); type: cell-based, human
Method: Apoptosis assay: 1 mL of Jurkat cells, at a density of 500,000 cells per milliliter, was added to 12 wells of a 24 well microtiter plate. Cells were treated immediately using a serial dilution of the synthesized proteasome inhibitors, the benzyl ester of Cystargolide B and the belactosin-cystargolide hybrid molecule. 10 μM Paclitaxel and 0.2 μg/mL Doxorubicin hydrochloride were used as positive apoptosis controls and non-treated cells were used as a negative control. The cells were then incubated for 24 h at 37° C. and 5% CO2. The following day, Annexin V-FITC conjugate was used to assay for the expression of phosphatidyl serine on the […] of the cellular membrane. The cells were briefly pelleted, aspirated, and resuspended in 300 μL of a reaction mixture containing 0.2 μL/mL of the Annexin V FITC solution, 2 mM CaCl2 to enable binding, and 2 μg/mL propidium iodide as an indicator of cell permeability. Each sample was incubated at 37° C. for 20 minutes, and then analyzed by flow cytometry. Single, whole cells were selected based on the forward and the side-scatter. With an excitation of 488 nm Annexin V-FITC binding was identified using FL1 533 nm emission. Propidium iodide staining was selected based on FL2 585 nm emission. […] Measurements were taken in biological triplicate for each sample, and the results were confirmed in technical triplicate.

MDA-MB-231 cells = experiment: MTT assay cytotoxicity MDA-MB-231; settings: Homo sapiens
Method: The cells were incubated at 37° C. in a humidified atmosphere with 5% CO2.
100 μL of cells were added to each well of a 96 well microtiter plate at a concentration of 4×10^4 cells/mL and incubated overnight to allow proper adhesion. (RPMI 8226 cells were plated at 4×10^5 cells/mL). The cells were treated with the panel of test compounds at a series of concentrations, along with vehicle control DMSO and untreated cells as controls. After 48 h incubation, 20 μL of MTT reagent (3-(4,5-dimethylthiazol-2-yl)-2,5-diphenyltetrazolium bromide) in PBS (5 mg/mL) was added to each well of the plates. The plate was incubated for 2 h at 37° C. For adherent cell lines, the media was removed from each well of the plate and the resulting formazan crystals dissolved in 100 μL of DMSO. For RPMI 8226 cells, 200 ul of DMF/SDS mix (50% DMF. 10% w/v SDS pH<4) was used to solubilize the formazan crystals. Optical density (OD) at 490 nm was measured using a microplate reader. Cells treated with 1 μM phenyl arsine oxide (PAO) served as a positive cell-killing control. Technical replicates of these assays were performed in biological quadruplicate, and the three best values were used for analysis in order to eliminate outliers. Data presented are the average IC50 value calculated from at least 3 technical replicates with the corresponding standard deviation.

Jurkat cells [2] = experiment: Cell cycle assay (flow cytometry); type: cell-based, human
Method: Vybrant® DyeCycle™ Orange Stain was used for the cell cycle assay. The amount of fluorescence of DNA was used as a relative measure of a cell's stage in the cell cycle. 500,000 Jurkat cells were added to wells on a 24 well microtiter plate in 1 mL of supplemented RPMI media. The cells were then treated with Compound 1 (TABLE 2). Using the cells treated for 12 and 24 hours, stained DNA fluorescence was measured via flow cytometry. The cells were taken from each well, pelleted briefly, aspirated, resuspended in 300 μL of 2 μL/mL Vybrant® DyeCycle™ Orange Stain, incubated at 37° C. for 15 minutes, and analyzed by flow cytometry. Selecting whole cells based on forward and side scatter, stained DNA fluorescence was excited at 488 nm and measured at an emission wavelength of 585 nm, using amount of fluorescence as a means of distinguishing between populations of cells. Populations were identified as G1 for the peak associated with the lowest amount of fluorescence, S phase for increased fluorescence appearing as a shoulder off of the G1 peak, and G2/M for approximately 2 times the fluorescence as the G1 peak. Measurements were taken in biological triplicate and confirmed in technical triplicate.

[3] = target: T1, trypsin-like activity of the 26S proteasome (Homo sapiens, UniProt Q99436); experiment: Proteasome assay, trypsin-like (T-L) activity, SUC-RLR-AMC, Jurkat cell lysate; type: biochemical; settings: Table 2, P1 analogues; ± S.D.; read-out: Proteasome Inhibition T-L-like IC50
T1 construct: endogenous in cells; host or cells: Jurkat (ATCC TIB-152, E6-1 clone) cell lysate
T1 sequence (Q99436 44-277): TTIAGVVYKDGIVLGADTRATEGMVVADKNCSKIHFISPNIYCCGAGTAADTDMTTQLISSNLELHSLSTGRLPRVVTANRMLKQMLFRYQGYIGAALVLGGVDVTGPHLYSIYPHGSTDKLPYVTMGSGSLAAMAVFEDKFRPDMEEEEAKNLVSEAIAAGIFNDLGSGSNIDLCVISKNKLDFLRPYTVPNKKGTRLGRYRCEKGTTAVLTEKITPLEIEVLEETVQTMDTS
Method: (§1) The lysate was stored at −80° C. until the sample was used for the proteasome assay.
(§2) The compounds were diluted with lysis buffer; 10 μL of the compound-containing solution was added to the test wells at ten times the final concentration. […] The results are reported as the average of at least 3 technical replicates of IC50 values for proteasome inhibition.

RPMI 8226 cells = experiment: MTT assay cytotoxicity RPMI 8226; settings: Homo sapiens
[4] = tested on: ubiquitinated proteins in MCF7 cells; experiment: Western blot of ubiquitinated proteins; type: cell-based, human
Method: The cells were incubated for 9.5 hrs at 37° C. and 5% CO2. After washing with PBS twice, cells were scraped, pelleted and lysed with CytoBuster™ Protein Extraction Reagent \ containing 10 μM compound 8, 10 μM Na3VO4, 0.017 mg/mL Aprotinin, 1 mM PMSF, and 1% Protease Inhibitor Cocktail. Thereafter 30 μg of protein in sample buffer (50 mM Tris-HCl, 2% SDS, 10% Glycerol, 1% β-mercaptoethanol, 12.5 mM EDTA, 0.02% Bromophenol Blue, pH 6.8) that had been boiled at 90° C. for 5 min, was electrophoresed using 6/8% SDS-PAGE, and the protein transferred to a […] PVDF membrane using a BioRad Trans-Blot® SD at 15 V for 17 minutes. The membrane was blocked with 1× casein buffer (Diluted 1:10 in water from casein blocking buffer 10×), and probed with either the polyclonal rabbit anti β-Actin (1:500) or the polyclonal rabbit anti-ubiquitin antibody (1:300), and stained with goat anti-rabbit IgG (H+L) HRP conjugate (1:3000) secondary antibodies. Antibody-recognized bands were visualized by a standard horseradish peroxidase chemiluminescent assay with an ECL kit.

[5] = target: T2, yeast proteasome yβ2 subunit (Saccharomyces cerevisiae, UniProt P25043+P25451); experiment: Subunit selectivity, purified yeast proteasome yβ2; type: biochemical
T2 construct: measured using 8 μg/mL of purified yCP or iCP
Method: as §2
Values and standard deviations were calculated from an assay performed in biological triplicate.

[6] = target: T3, chymotrypsin-like activity of the 26S proteasome (Homo sapiens, UniProt P28074); experiment: Proteasome assay, chymotrypsin-like (ChT-L) activity, Suc-LLVY-AMC, Jurkat cell lysate; type: biochemical
T3 construct: endogenous in cells; host or cells: Jurkat (ATCC TIB-152, E6-1 clone) cell lysate
T3 sequence (P28074 60-263): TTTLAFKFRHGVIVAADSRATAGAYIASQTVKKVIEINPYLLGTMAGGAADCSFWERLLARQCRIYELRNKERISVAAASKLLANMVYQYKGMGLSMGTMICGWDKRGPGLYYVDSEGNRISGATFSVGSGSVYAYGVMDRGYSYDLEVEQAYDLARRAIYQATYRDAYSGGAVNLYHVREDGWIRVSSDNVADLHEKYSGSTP
Method: as §1, §2

[7] = target: T4, ChT-L activity of the 26S proteasome (Homo sapiens, UniProt P28074); experiment: Proteasome inhibition after pre-incubation with newborn bovine serum; type: in vitro ADME; settings: pre-incubation 1 hour at 37° C. with NBS
T4 sequence (P28074 60-263): T3 sequence (P28074 60-263)
Method: EDTA chelates divalent metal ions. By including EDTA during the pre-incubation step, EDTA protected compound 8 from being deactivated by NBS, shown by low proteasome activity below 5 nM of compound 8.
The assays were performed in biological triplicate, and the data points are reported with the corresponding standard deviations.

`CC[C@H](C)[C@@H]1C(=O)O[C@H]1C(=O)N[C@H](C(=O)N[C@H](C(=O)OCc1ccccc1)C(C)C)C(C)C` [Compound 8, Benzyl ((2R,3S)-3-((S)-sec-butyl)-4-oxooxetane-2-carbonyl)-L-valyl-L-valinate] was tested, and the induction of apoptosis (Jurkat cells [1]) was “induction of apoptosis”, the IC50 (MDA-MB-231 cells; MDA-MB-231, 48 h, read-out: Cytotoxicity MDA-MB-231 IC50) was 359 ± 72 nM and the IC50 (MDA-MB-231 cells; MDA-MB-231, read-out: Cytotoxicity MDA-MB-231 IC50) was 380 ± 18.8 nM. For the same compound, the cell cycle arrest (Jurkat cells [2]) was “cell cycle arrest in the G2/M phase”, the IC50 [3] was 1520 ± 788 nM and the IC50 (RPMI 8226 cells; RPMI-8226, 48 h, read-out: Cytotoxicity RPMI 8226 IC50) was 201 ± 82 nM. The IC50 (RPMI 8226 cells; RPMI-8226, read-out: Cytotoxicity RPMI 8226 IC50) was 192 ± 32.3 nM, the “accumulation of ubiquitinated proteins” value [4] was “accumulation of ubiquitinated proteins” and the IC50 [5] was 26100 ± 2380 nM. The IC50 [6] was 7.1 ± 2.8 nM, the IC50 ([6]; Table 5, ± S.D., read-out: Proteasome Inhib. ChT-L IC50) was 7 ± 0.311 nM and the “deactivation by newborn bovine serum” value [7] was “deactivates compound 8”.

— patent US11396497B2, “Proteasome inhibitors” (New Mexico Tech University Research Park Corporation, priority 2018, dated 2022)
